In patent US8507724B2 (priority 2008, dated 2013):
“And” between values parts separate entries of the source, which are not always exact repeats. Equal entries are not always repeated. Where two headings read alike, the source gives them in different places.

Assay: in vivo
Type: in vivo
Conditions: rat
Experimental: […] Whole blood samples were taken from a lateral tail vein for plasma separation at time points 0 min, 30 min, 1 h, 2 h and 4 h after p.o. dosing; and 0 min, 15 min, 30 min, 1 h, and 2 h after i.v. dosing, while the terminal samples at time point 6 h after dosing (p.o and Lv.) were taken by cardiac puncture. All time points were taken from a single rat, and all experiments were carried out in triplicate.
The samples were thawn at room temperature and prepared by protein precipitation with ratio 1:2 of plasma and acetonitrile and were centrifuged 10 minutes at 16 100×g (Eppendorf 5415D, Eppendorf AG, Hamburg, Germany) before injection to UPLCIMSMS system. The standard samples were prepared similarly, after spiking blank plasma samples to 0.5, 2, 5, 10, 20, 50, 200, 500, 1000 and 2000 ng/ml of the analyte compounds.
The pharmacokinetic parameters for study compounds were calculated by WinNonlin Pro (Pharsight Corp, CA) using standard noncompartmental methods. The volume of distribution (Vd) was based on the terminal phase. The elimination phase half-life (t1/2) was calculated by least-squares regression analysis of the terminal linear part of the log concentration-time curve. The area under the plasma concentration-time curve (AUC) was determined by use of the linear trapezoidal rule up to the last measurable concentration and thereafter by extrapolation of the terminal elimination phase to infinity. The area under the plasma concentration-time curve without terminal extrapolation is reported as AUC 0-6 h. The mean residence time (MRT) representing the average amount of time a compound remains in a compartment or system was calculated extrapolating the drug concentration profile to infinity. The maximum plasma concentration (cmax) and the time to cmax (tmax) were derived directly from the plasma concentration data. The tentative oral bioavailability (F) was calculated by dividing the AUC after p.o. administration by the AUC after i.v. administration taking into account the differences in dose, i.e. F=AUC(p.o.)/Dose(p.o.)/AUC(i.v)/[…], and reported as percentages (%).
A Waters Acquity chromatographic system (Waters Corp., Milford, Mass., USA) with autosampler, vacuum degasser and column oven was used. The analytical column used for all compounds was a Waters BEH ShieldRP18, (2.1×50 mm, 1.7 μm, Waters Corp, Milford, Mass., USA) together with an on-line filter. The eluents were 0.1% acetic acid (A, pH 3.2) and acetonitrile (B). A linear gradient elution from 5% B to 35% B in 0-2 minutes, from 35% B to 85% B in 2.0-3.0 min was employed, followed by 1 min isocratic elution with […] and column equilibration. The flow rate was 0.5 ml/min and the column oven temperature was 35° C. LC/MS/MS/data was acquired with a Micromass Quattro Premier triple quadrupole mass spectrometer equipped with a LockSpray electrospray ionization source. A negative ion mode ionisation was used. The multiple reaction monitoring (MRM) mode of detection was used. The mass spectrometer and UPLC system were operated under Micromass MassLynx 4.1 software. Complete LC/MS/MS parameters are presented in Appendix I.
Detection/quantitation limits between 2 ng/ml and 10 ng/ml in plasma were obtained for each compound. Calibration curves for quantification were generated by fitting the ratio of the external standard peak areas as a function of the concentration, excluding the point of origin and using 1/x weighting and linear or quadratic fitting. The ranges up to 2000 ng/ml were fitted for calibration curves. […] The overall precisions 12.0-17.0% were calculated from the standard samples (two injection/concentration), using Snedecor equation S=(Σd^2/2n)^0.5, in which S=precision, d is the difference between duplicates expressed as % of the mean value, and N is the number of standard concentration. The concentrations of each study compound in the samples are shown in the Appendices IV-VI.

[1] = 2 mg/kg i.v., individual animals, 2 mg/kg
[2] = in vivo, iv, 2 mg/kg, 2 mg/kg i.v., individual animals, read-out: t1/2
[3] = in vivo, iv, 2 mg/kg, i.v. 2 mg/kg, mean n=3, read-out: t1/2
[4] = 20 mg/kg p.o., individual animals, 20 mg/kg

CC(C)c1cc(-c2ccc(Cl)cc2)cc(C(C)C)c1O [4-(p-Cl—Ph)-propofol, 4-(para-Chlorophenyl)-propofol]
bioavailability (plasma, po, 20 mg/kg p.o. vs 2 mg/kg i.v., read-out: F (%) tentative oral bioavailability): 0%
tmax (2 mg/kg i.v., individual animals): 0.25 h
AUC [1]: 36.3 µg·min/mL and 40.8 µg·min/mL and 68.8 µg·min/mL
CL/F [1]: 55.1 mL/min/kg and 49.1 mL/min/kg and 29.1 mL/min/kg
MRT [1]: 1.51 h and 0.782 h
cmax [1]: 0.46 µg/mL and 0.78 µg/mL
t1/2 [1]: 1.54 h and 1.78 h
ADC 0-6 h (i.v. 2 mg/kg, mean n=3): 46.6 µg·min/mL
AUC (i.v. 2 mg/kg, mean n=3): 48.6 µg·min/mL
CL/F (i.v. 2 mg/kg, mean n=3): 44.4 mL/min/kg
clearance (in words) (i.v. dosing, compared to rat liver blood flow): in the range of hepatic blood flow
half-life [2]: 1.52 h
half-life [3]: 1.61 h
concentration in plasma (iv (2 mg/kg), 15 min, individual animals, listed as CK2-3, 2 mg/kg): 398 ng/mL and 456 ng/mL
concentration in plasma (iv (2 mg/kg), 30 min, individual animals, listed as CK2-3, 2 mg/kg): 123 ng/mL and 187 ng/mL and 307 ng/mL
concentration in plasma (iv (2 mg/kg), 1 h, individual animals, listed as CK2-3, 2 mg/kg): 149 ng/mL and 156 ng/mL
concentration in plasma (iv (2 mg/kg), 2 h, individual animals, listed as CK2-3, 2 mg/kg): 62.4 ng/mL and 74.2 ng/mL
concentration in plasma (iv (2 mg/kg), 6 h, individual animals, listed as CK2-3, 2 mg/kg): 14.6 ng/mL and 14.9 ng/mL
detection in plasma after oral (p.o.) administration: detected in plasma only after i.v. administration
detection in plasma after oral (p.o.) administration (listed as CK-2-3): not detected
half-life (plasma, iv, 2 mg/kg, i.v. administration, read-out: half life (converted)): ~1.5 h
concentration at 15 min (plasma, iv, 2 mg/kg, iv (2 mg/kg), 15 min, individual animals): 784 ng/mL
concentration at 1 h (plasma, iv, 2 mg/kg, iv (2 mg/kg), 1 h, individual animals): 79.7 ng/mL
concentration at 2 h (plasma, iv, 2 mg/kg, iv (2 mg/kg), 2 h, individual animals): 63.9 ng/mL
concentration at 6 h (plasma, iv, 2 mg/kg, iv (2 mg/kg), 6 h, individual animals): 13.1 ng/mL

CC(C)c1cc(-c2ccc(Cl)c(F)c2)cc(C(C)C)c1O [p-(3-F,4-Cl—Ph)-propofol, Para-(3-Fluoro,4-chlorophenyl)-propofol]
CL/F [1]: 24.9 mL/min/kg and 30.4 mL/min/kg and 32.5 mL/min/kg
t1/2 [1]: 1.53 h and 1.65 h
CL/F [4]: 153 mL/min/kg and 434 mL/min/kg and 105 mL/min/kg
t1/2 [4]: 7.8 h and 18.5 h and 13.1 h
CL/F (i.v. 2 mg/kg, mean n=3): 29.3 mL/min/kg
bioavailability (in vivo): ~18%
clearance (in words) (in vivo, iv): intermediate
half life (in words) (in vivo, iv): intermediate
ADC 0-6 h (in vivo, iv, 2 mg/kg): 64.1 µg·min/mL
tmax (in vivo, iv, 2 mg/kg): 0.25 h
half-life [2]: 1.36 h
half-life [3]: 1.52 h
concentration at 30 min (in vivo, iv, 2 mg/kg, iv (2 mg/kg), 30 min, individual animals, read-out: concentration in plasma): 444 ng/mL
concentration at 1 h (in vivo, iv, 2 mg/kg, iv (2 mg/kg), 1 h, individual animals, read-out: concentration in plasma): 316 ng/mL
concentration at 2 h (in vivo, iv, 2 mg/kg, iv (2 mg/kg), 2 h, individual animals, read-out: concentration in plasma): 90.3 ng/mL
concentration at 6 h (in vivo, iv, 2 mg/kg, iv (2 mg/kg), 6 h, individual animals, read-out: concentration in plasma): 24.1 ng/mL
ADC 0-6 h (in vivo, po, 20 mg/kg): 34.6 µg·min/mL
CL (in vivo, po, 20 mg/kg): 41.1 mL/min/kg
Tmax (in vivo, po, 20 mg/kg): 0.5 h
Vd (in vivo, po, 20 mg/kg): 54.4 L/kg
bioavailability (in vivo, po, 20 mg/kg): 17.8%
tmax (in vivo, po, 20 mg/kg): 0.5 h
Vd/F (in vivo, po, 20 mg/kg, p.o. 20 mg/kg, mean n=3): 306 L/kg
CL/F (in vivo, po, 20 mg/kg, p.o. 20 mg/kg, mean n=3, read-out: CL/F): 231 mL/min/kg
half-life (in vivo, po, 20 mg/kg, p.o. 20 mg/kg, mean n=3, read-out: t1/2): 13.2 h
concentration in plasma (iv (2 mg/kg), 15 min, individual animals, listed as CK2-9, 2 mg/kg): 1100 ng/mL and 689 ng/mL and 535 ng/mL
concentration in plasma (iv (2 mg/kg), 30 min, individual animals, listed as CK2-9, 2 mg/kg): 499 ng/mL and 513 ng/mL
concentration in plasma (iv (2 mg/kg), 1 h, individual animals, listed as CK2-9, 2 mg/kg): 329 ng/mL and 297 ng/mL
concentration in plasma (iv (2 mg/kg), 2 h, individual animals, listed as CK2-9, 2 mg/kg): 74.0 ng/mL and 81.3 ng/mL
concentration in plasma (iv (2 mg/kg), 6 h, individual animals, listed as CK2-9, 2 mg/kg): 44.0 ng/mL and 46.6 ng/mL
detection in plasma after oral (p.o.) administration: observed in plasma
concentration in plasma (po (20 mg/kg), 30 min, individual animals, listed as CK2-9, 20 mg/kg): 172 ng/mL and 213 ng/mL and 63.0 ng/mL
concentration in plasma (po (20 mg/kg), 1 h, individual animals, listed as CK2-9, 20 mg/kg): 182 ng/mL and 26.6 ng/mL and 121 ng/mL
concentration in plasma (po (20 mg/kg), 2 h, individual animals, listed as CK2-9, 20 mg/kg): 134 ng/mL and 26.2 ng/mL and 168 ng/mL
concentration in plasma (po (20 mg/kg), 4 h, individual animals, listed as CK2-9, 20 mg/kg): 21.5 ng/mL and 97.6 ng/mL
concentration in plasma (po (20 mg/kg), 6 h, individual animals, listed as CK2-9, 20 mg/kg): 121 ng/mL and 22.9 ng/mL and 128 ng/mL
